Measurements taken from patent publication US20080069896A1, “Antitumor Composition” (Kabushiki Kaisha Sangi, priority 2004, published 2008).

Tests used:
LoVo = assay: MTT assay, human cancer cells LoVo; assay type: cell-based; conditions: for Platinum content calculated from IC50 of human cancer cells by MTT assay: IC50 converted to platinum concentration; for IC50 of human cancer cells by MTT assay: colon cancer, HAP agents particle diameter 0.1 μm or less
Procedure: (§1) Effect of platinum tetrachloride/hydroxyapatite (PtCl4/HAP) and hexachloroplatinate/hydroxyapatite (H2PtCl6/HAP) against human cancer cells (MTT assay)
(§2) According to “in vitro toxicity test using MTT”, which is an ordinary test method, MTT assay was performed for PtCl4/HAP (particle diameter 0.1 μm or less), and H2PtCl6/HAP (particle diameter 0.1 μm or less) by using 19 types of human cancer cells. PtCl4/HAP and H2PtCl6/HAP were used by adjusting the final dispersion concentration to 1.0% in a dispersion liquid each containing 10% platinum as a theoretical value. For comparison, MTT assay was performed for PtCl4 and CDDP. PtCl4 was dissolved at an adequate dose, and then used after serial dilution with PBS (−). For CDDP, injection liquid from Malco was used.

HSC3 = assay: MTT assay, human cancer cells HSC3; assay type: cell-based; conditions: for IC50 of human cancer cells by MTT assay: HSC3, oral cancer, HAP agents particle diameter 0.1 μm or less; for Platinum content calculated from IC50 of human cancer cells by MTT assay: HSC3, IC50 converted to platinum concentration
Procedure: as §1, §2

AZ521 = assay: MTT assay, human cancer cells AZ521; assay type: cell-based; conditions: for IC50 of human cancer cells by MTT assay: AZ521, gastric cancer, HAP agents particle diameter 0.1 μm or less; for Platinum content calculated from IC50 of human cancer cells by MTT assay: AZ521, IC50 converted to platinum concentration
Procedure: as §1, §2

NUGC-4 = assay: MTT assay, human cancer cells NUGC-4; assay type: cell-based; conditions: for IC50 of human cancer cells by MTT assay: NUGC-4, gastric cancer, HAP agents particle diameter 0.1 μm or less; for Platinum content calculated from IC50 of human cancer cells by MTT assay: NUGC-4, IC50 converted to platinum concentration
Procedure: as §1, §2

HepG2 = assay: MTT assay, human cancer cells HepG2; assay type: cell-based; conditions: for IC50 of human cancer cells by MTT assay: HepG2, liver cancer, HAP agents particle diameter 0.1 μm or less; for Platinum content calculated from IC50 of human cancer cells by MTT assay: HepG2, IC50 converted to platinum concentration
Procedure: as §1, §2

[1] = tested on: fibroblasts during resting stage; assay: Toxicity test during resting stage (MTT assay); assay type: cell-based; conditions: rat fibroblasts, confluent, 48 hours; for IC50 in the toxicity test during resting stage: HAP agents particle diameter 0.1 μm or less
Description: (§3) A male mature rat was deeply anesthetized with ether, and disinfected by wiping carefully its tail with alcohol. The tail end part was cut by several centimeters, and the skin was removed from coccyx. Tendon was attached to the coccyx, and by culturing the same, fibroblasts can be recovered. Coccyx part was further cut finely with a sterilized pair of scissors, and adhered on a sterilized plastic plate with the cut surface down. After resting the plate for a while, DMEM supplemented with 10% FBS was added thereto. In approximately one week, fibroblasts germinated from the coccyx part, and proliferated in the plate. The fibroblasts collected from rat tail end were used for the following experiment.
Rat fibroblasts during proliferating stage were inoculated 2 times more than usual to a 96-well plate, that 100 μl of cell suspension at 2×10^4 cells/ml. Subsequently, it was cultured for 72 hours, in order to make cells in a confluent condition. After confirming with an inverted microscope that cells were in a complete confluent condition in each well, medium of each well was changed. Then, serially diluted test samples were added to the wells by aliquot of 10 μl, by the above-mentioned method. Culture was continued 48 hours after the addition, and subsequently, MTT assay was performed for PtCl4/HAP (particle diameter 0.1 μm or less), and H2PtCl6/HAP (particle diameter 0.1 μm or less), with similar procedures to those described in the above “toxicity test of PtCl4/HAP and H2PtCl6/HAP during proliferation stage”.

YES3 = assay: MTT assay, human cancer cells YES3; assay type: cell-based; conditions: for IC50 of human cancer cells by MTT assay: YES3, esophageal cancer, HAP agents particle diameter 0.1 μm or less; for Platinum content calculated from IC50 of human cancer cells by MTT assay: YES3, IC50 converted to platinum concentration
Procedure: as §1, §2

YES6 = assay: MTT assay, human cancer cells YES6; assay type: cell-based; conditions: for IC50 of human cancer cells by MTT assay: YES6, esophageal cancer, HAP agents particle diameter 0.1 μm or less; for Platinum content calculated from IC50 of human cancer cells by MTT assay: YES6, IC50 converted to platinum concentration
Procedure: as §1, §2

[2] = tested on: fibroblasts during proliferation stage; assay: Toxicity test during proliferation stage (MTT assay); assay type: cell-based; conditions: rat fibroblasts, 48 hours; for IC50 in the toxicity test during proliferation stage: HAP agents particle diameter 0.1 μm or less
Description: as §3
According to “in vitro toxicity test method using MTT” which is an ordinary test method, MTT assay was performed for PtCl4/HAP (particle diameter 0.1 μm or less) and H2PtCl6/HAP (particle diameter 0.1 μm or less). PtCl4/HAP and H2PtCl6/HAP were used by adjusting the final dispersion concentration to 1.0%, with a dispersion liquid each containing 10% platinum as a theoretical value. For comparison, MTT assay was performed for PtCl4 and CDDP. PtCl4 was dissolved at an adequate dose, and then used after serial dilution with PBS (−) For CDDP, injection liquid from Malco was used.
Fibroblasts during proliferation stage on the plate were peeled off with trypsin-EDTA, adjusted to 1×10^4/ml, and poured by aliquot of […] in a 96-well plate.
The 96-well plate added with fibroblasts was cultured for 24 hours, and samples serially diluted with PBS (−) were added by an amount of 10 μl. 48 hours after adding a test sample, 200 μl of PBS (−) was added to the 96-well plate, and approximately 1 min after, all the solution was removed. Immediately, 160 μl of DMSO was added to the plate. However, to the plates in which PtCl4/HAP and H2PtCl6/HAP were added, DMSO was added in an amount of 200 μl, respectively. Each plate was shaken for 5 min in a shaker, to dissolve completely the formed formazan. As it was believed that precipitation of PtCl4/HAP and H2PtCl6/HAP would suppress the colorization, the plates of PtCl4/HAP and H2PtCl6/HAP were rested for 5 min, and 160 μl of the supernatant was moved to another 96-well plate. Test samples for each cell and each concentration, the test was performed for 4 wells or more, and the optical density was measured by using a microplate at 550 nm.

[3] = tested on: fibroblasts at confluency; assay: Microscopic observation of toxicity effect during resting stage; assay type: cell-based, rat; conditions: amount corresponding to 2 ppm of platinum content, fibroblasts at confluency, cultured for 48 hours
Description: as §3
From the result of Example 7, 2 ppm which is a value of platinum content that kills 50% of fibroblasts in CDDP during resting stage was set as a standard. Then, CDDP, PtCl4/HAP, PtCl4 and HAP dispersion liquids in an amount corresponding to 2 ppm of platinum content, were added to the fibroblasts at confluency in a medium, and cultured for 48 hours.

YES1 = assay: MTT assay, human cancer cells YES1; assay type: cell-based; conditions: for IC50 of human cancer cells by MTT assay: YES1, esophageal cancer, HAP agents particle diameter 0.1 μm or less; for Platinum content calculated from IC50 of human cancer cells by MTT assay: YES1, IC50 converted to platinum concentration
Procedure: as §1, §2

SW837 = assay: MTT assay, human cancer cells SW837; assay type: cell-based; conditions: for IC50 of human cancer cells by MTT assay: SW837, colon cancer, HAP agents particle diameter 0.1 μm or less; for Platinum content calculated from IC50 of human cancer cells by MTT assay: SW837, IC50 converted to platinum concentration
Procedure: as §1, §2

[4] = tested on: human lung cancer cell Lu99; assay: MTT assay, human lung cancer cell Lu99; assay type: cell-based; conditions: for IC50 of human cancer cells by MTT assay: Lu99, lung cancer, HAP agents particle diameter 0.1 μm or less (Table 1); for Platinum content calculated from IC50 of human cancer cells by MTT assay: Lu99, IC50 converted to platinum concentration (Table 2)
Procedure: as §1, §2

SMILES | Platinum content calculated from IC50 of human cancer cells by MTT assay (LoVo) [ppm] | IC50 of human cancer cells by MTT assay (LoVo) [ppm] | IC50 of human cancer cells by MTT assay (HSC3) [ppm] | Platinum content calculated from IC50 of human cancer cells by MTT assay (HSC3) [ppm] | IC50 of human cancer cells by MTT assay (AZ521) [ppm] | Platinum content calculated from IC50 of human cancer cells by MTT assay (AZ521) [ppm] | IC50 of human cancer cells by MTT assay (NUGC-4) [ppm] | Platinum content calculated from IC50 of human cancer cells by MTT assay (NUGC-4) [ppm] | IC50 of human cancer cells by MTT assay (HepG2) [ppm] | Platinum content calculated from IC50 of human cancer cells by MTT assay (HepG2) [ppm] | Net Pt: platinum content wherein IC50 is converted to platinum concentration, resting stage [1] [ppm] | IC50 in the toxicity test during resting stage [1] [ppm] | IC50 of human cancer cells by MTT assay (YES3) [ppm] | Platinum content calculated from IC50 of human cancer cells by MTT assay (YES3) [ppm] | IC50 of human cancer cells by MTT assay (YES6) [ppm] | Platinum content calculated from IC50 of human cancer cells by MTT assay (YES6) [ppm] | Net Pt: platinum content wherein IC50 is converted to platinum concentration, proliferation stage [2] [ppm] | IC50 in the toxicity test during proliferation stage [2] [ppm] | Microscopic observation of cell form of cultured fibroblasts [3] | IC50 of human cancer cells by MTT assay (YES1) [ppm] | further results
[NH2][Pt]([NH2])([Cl])[Cl] [CDDP, cisplatin] | 10.3 | 15.8 | 2.9 | 1.9 | 1.0 | 0.7 | 15.6 | 10.1 | 5.0 | 5.0 | 1.9 | 2.9 | 1.2 | 0.8 | 0.8 | 0.5 | 0.3 | 0.5 | most of the cells had a round form | 8.2 | Platinum content calculated from IC50 of human cancer cells by MTT assay (YES1): 5.4 ppm; IC50 of human cancer cells by MTT assay (SW837): 40.2 ppm; Platinum content calculated from IC50 of human cancer cells by MTT assay (SW837): 26.1 ppm; IC50 of human cancer cells by MTT assay [4]: 0.8 ppm; Platinum content calculated from IC50 of human cancer cells by MTT assay [4]: 0.8 ppm
[Cl][Pt]([Cl])([Cl])[Cl] [PtCl4, platinum tetrachloride] | 3.8 | 6.6 | 9.6 | 5.5 | 14.6 | 8.4 | 7.7 | 4.5 | 6.2 | 6.2 | 13.8 | 23.8 | 19.2 | 11.1 | 11.9 | 6.9 | 2.3 | 4.0 | many cells wherein spindle form was deformed, or having a round form, were observed | 19.2 | Platinum content calculated from IC50 of human cancer cells by MTT assay (YES1): 11.1 ppm; IC50 of human cancer cells by MTT assay (SW837): 32.9 ppm; Platinum content calculated from IC50 of human cancer cells by MTT assay (SW837): 19.1 ppm; IC50 of human cancer cells by MTT assay [4]: 1.1 ppm; Platinum content calculated from IC50 of human cancer cells by MTT assay [4]: 1.1 ppm
